Each structure is given as a SMILES string. Converted amounts (≈) assume the structure as drawn. Where two headings read alike, the source gives them in different places. Starred links: 1 amine or outer side, 2 acyl side, 3 side chain; linkers in the order of their positions; H or OH if unused. Positions of bridges follow the written chain, without caps; N, C: chain ends. Residues, ends and D or L forms follow the SMILES beside them. *: point of attachment. C20 diacid = O=C(O)CCCCCCCCCCCCCCCCCCC(=O)*; γGlu = O=C(O)[C@H](CCC(=O)[*:2])N[*:1] Some results are limits rather than exact numbers.

Series [1] addresses T1, human amylin receptor (amylin 3(a) receptor: human calcitonin receptor + RAMP-3) (Homo sapiens, UniProt O60896+P30988).
T1 construct: expressed in transfected cells; host or cells: BHK570
T1 sequence (P30988 25-474): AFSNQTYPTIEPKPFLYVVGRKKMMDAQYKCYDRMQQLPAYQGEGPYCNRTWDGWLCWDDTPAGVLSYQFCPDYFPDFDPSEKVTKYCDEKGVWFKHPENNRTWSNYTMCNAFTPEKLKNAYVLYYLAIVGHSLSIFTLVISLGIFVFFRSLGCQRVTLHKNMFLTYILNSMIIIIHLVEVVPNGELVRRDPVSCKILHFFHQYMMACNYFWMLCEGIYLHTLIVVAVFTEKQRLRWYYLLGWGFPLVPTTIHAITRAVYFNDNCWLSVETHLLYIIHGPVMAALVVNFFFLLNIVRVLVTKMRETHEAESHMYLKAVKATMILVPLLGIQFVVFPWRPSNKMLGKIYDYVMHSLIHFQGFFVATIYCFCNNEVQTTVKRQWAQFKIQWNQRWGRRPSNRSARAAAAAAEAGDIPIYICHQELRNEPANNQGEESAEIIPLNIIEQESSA
T1 sequence (O60896 24-148 partner): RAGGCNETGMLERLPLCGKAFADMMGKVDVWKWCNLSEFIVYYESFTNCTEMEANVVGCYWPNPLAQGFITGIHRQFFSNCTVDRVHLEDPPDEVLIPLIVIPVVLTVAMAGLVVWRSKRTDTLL
The experiment in a line: Assay (II)a functional CRE-luciferase assay, human amylin receptor. The series is classed as cell-based. The conditions noted are these: Table 2; BHK amylin 3(a)-receptor/CRE-luc cells.

Series [2] has as its target T2, human calcitonin receptor (Homo sapiens, UniProt P30988).
T2 construct: expressed in transfected cells; host or cells: BHK570
T2 sequence (P30988 25-474): T1 sequence (P30988 25-474)
The experiment in a line: Assay (II)a functional CRE-luciferase assay, human calcitonin receptor. In kind it is cell-based. The conditions noted are these: Table 7; human calcitonin (CTa) receptor.

Series [3] can be described thus: Assay (IV) determination of solubility. The series is classed as physicochemical. The gist of the method: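 Polypeptide in water (~500 nmol/ml) mixed 1:1 with 100 mM glycylglycine (pH 3.0–5.0) or bistrispropane (pH 6.0–8.0) buffers. Held 18 hours at room temperature, then centrifuged. Polypeptide remaining in solution quantified by HPLC.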
Series [4] in a line: Assay (III) ThT fibrillation assay for physical stability. In kind it is physicochemical. The gist of the method:
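Freshly prepared formulations, pH-adjusted, with 1 μM ThT; four or eight replicates incubated at 37 °C under 960 rpm orbital shaking. Fluorescence (ex 444/em 485 nm) read every 20 min; […]. Peptide concentration measured by RP-HPLC before and after the run.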

Setting [5] is: bistrispropane buffer, pH 6, pH 6.0, read-out: Solubility pH 6.0.
Setting [6] is: bistrispropane buffer, pH 6.5, pH 6.5, read-out: Solubility pH 6.5.
Where [7] appears, read: bistrispropane buffer, pH 7, pH 7.0, 18 hours at room temperature, Table 3, read-out: Solubility pH 7.0.
[8] abbreviates: bistrispropane buffer, pH 7, pH 7.0, read-out: Solubility pH 7.0.
Where [9] appears, read: bistrispropane buffer, pH 7.5, pH 7.5, read-out: Solubility pH 7.5.
[10] abbreviates: bistrispropane buffer, pH 8, pH 8.0, read-out: Solubility pH 8.0.
Setting [11] is: glycylglycine buffer, pH 3, pH 3.0, read-out: Solubility pH 3.0.
[12] abbreviates: glycylglycine buffer, pH 4, pH 4.0, 18 hours at room temperature, Table 2, read-out: Solubility pH 4.0.
[13] abbreviates: glycylglycine buffer, pH 4, pH 4.0, read-out: Solubility pH 4.0.
[14] abbreviates: glycylglycine buffer, pH 5, pH 5.0, read-out: Solubility pH 5.0.

A word on the EC50: it is the concentration at which the effect is half-maximal. What is called solubility is the dissolved amount per volume that the medium holds. `CC[C@H](C)[C@H](NC(=O)[C@@H]1CCCN1C(=O)CNC(=O)[C@H](Cc1ccccc1)NC(=O)[C@H](CC(N)=O)NC(=O)[C@H](CC(N)=O)NC(=O)[C@H](CO)NC(=O)[C@H](CO)NC(=O)[C@H](Cc1c[nH]cn1)NC(=O)[C@H](Cc1c[nH]cn1)NC(=O)[C@H](CC(C)C)NC(=O)[C@H](Cc1ccccc1)NC(=O)[C@H](CCC(=O)O)NC(=O)[C@H](C)NC(=O)[C@H](CC(C)C)NC(=O)[C@H](CCCNC(=N)N)NC(=O)[C@H](CCC(N)=O)NC(=O)[C@@H](NC(=O)[C@H](C)NC(=O)[C@@H]1CSSC[C@H](NC(=O)CNC(=O)CC[C@H](NC(=O)CCCCCCCCCCCCCCCCCCC(=O)O)C(=O)O)C(=O)N[C@@H](CC(N)=O)C(=O)N[C@@H]([C@@H](C)O)C(=O)N[C@@H](C)C(=O)N[C@@H]([C@@H](C)O)C(=O)N1)[C@@H](C)O)C(=O)N[C@@H](CC(C)C)C(=O)N1CCC[C@H]1C(=O)N1CCC[C@H]1C(=O)N[C@H](C(=O)N[C@@H](CC(N)=O)C(=O)N[C@H](C(=O)NCC(=O)N[C@@H](CO)C(=O)N[C@@H](Cc1c[nH]cn1)C(=O)N[C@H](C(=O)N[C@@H](Cc1ccc(O)cc1)C(N)=O)[C@@H](C)O)C(C)C)[C@@H](C)O` [Example 105, N-alpha-[(S)-4-Carboxy-4-(19-carboxynonadecanoylamino)butyryl]-[Gly1,Glu14,His17,His35]-pramlintide] ({C20 diacid-γGlu}-GCNTATCATQRLAEFLHHSSNNFGPILPPTNVGSHTY-NH2; disulfide 2-7 (inferred); C-terminus assumed): the EC50 in series [1] was determined as 208 pM; in series [2], 160 pM. Further, the solubility at 18 h in series [3] (setting [5]) was above 200 µM; in series [3] (setting [6]) it was 152 µM (≈ 670 µg/mL); in series [3] (setting [7]), above 200 µM; in series [3] (bistrispropane buffer, pH 7, pH 7.0, Table 8, read-out: Solubility pH 7.0), above 200 µM; in series [3] (setting [8]) it was above 200 µM; in series [3] (setting [9]) it was above 200 µM. The solubility at 18 h in series [3] (setting [10]), in series [3] (setting [11]), in series [3] (setting [12]), in series [3] (setting [13]) and in series [3] (setting [14]) was above 200 µM each time. The “ThT pH 4.0 lag time” value in series [4] (Table 8) and in series [4] (ThT fibrillation assay) was 26 h each time. In series [4] (ThT fibrillation assay), the “ThT pH 4.0 lag time (h)” value turned out to be 26 h.
As for `CC[C@H](C)[C@H](NC(=O)[C@@H]1CCCN1C(=O)CNC(=O)[C@H](Cc1ccccc1)NC(=O)[C@H](CC(N)=O)NC(=O)[C@H](CC(N)=O)NC(=O)[C@H](CO)NC(=O)[C@H](CO)NC(=O)[C@H](Cc1c[nH]cn1)NC(=O)[C@H](Cc1c[nH]cn1)NC(=O)[C@H](CC(C)C)NC(=O)[C@H](Cc1ccccc1)NC(=O)[C@H](CCC(=O)O)NC(=O)[C@H](C)NC(=O)[C@H](CC(C)C)NC(=O)[C@H](CCCNC(=N)N)NC(=O)[C@H](CCC(N)=O)NC(=O)[C@@H](NC(=O)[C@H](C)NC(=O)[C@@H]1CSSC[C@H](NC(=O)[C@H](CO)NC(=O)CC[C@H](NC(=O)CCCCCCCCCCCCCCCCCCC(=O)O)C(=O)O)C(=O)N[C@@H](CC(N)=O)C(=O)N[C@@H]([C@@H](C)O)C(=O)N[C@@H](C)C(=O)N[C@@H]([C@@H](C)O)C(=O)N1)[C@@H](C)O)C(=O)N[C@@H](CC(C)C)C(=O)N1CCC[C@H]1C(=O)N1CCC[C@H]1C(=O)N[C@H](C(=O)N[C@@H](CC(N)=O)C(=O)N[C@H](C(=O)NCC(=O)N[C@@H](CO)C(=O)N[C@@H](CC(N)=O)C(=O)N[C@H](C(=O)N1CCC[C@H]1C(N)=O)[C@@H](C)O)C(C)C)[C@@H](C)O` [Example 106, N-alpha-[(S)-4-Carboxy-4-(19-carboxynonadecanoylamino)butyryl]-[Ser1,Glu14,His17,Pro37]-pramlintide] ({C20 diacid-γGlu}-SCNTATCATQRLAEFLHHSSNNFGPILPPTNVGSNTP-NH2; disulfide 2-7 (inferred); C-terminus assumed), the EC50 in series [1] was 62.5 pM; in series [2], 70.5 pM. The solubility at 18 h in series [3] (setting [5]), in series [3] (setting [6]), in series [3] (setting [7]), in series [3] (setting [8]), in series [3] (setting [9]) and in series [3] (setting [10]) was above 200 µM throughout. In addition, the solubility at 18 h in series [3] (setting [11]), in series [3] (setting [12]), in series [3] (setting [13]) and in series [3] (setting [14]) was above 200 µM each time. Moreover, the “ThT pH 4.0 lag time (h)” value in series [4] (ThT fibrillation assay) was found to be 9.7 h.
`CC[C@H](C)[C@H](NC(=O)[C@@H]1CCCN1C(=O)CNC(=O)[C@H](Cc1ccccc1)NC(=O)[C@H](CC(N)=O)NC(=O)[C@H](CC(N)=O)NC(=O)[C@H](CO)NC(=O)[C@H](CO)NC(=O)[C@H](Cc1c[nH]cn1)NC(=O)[C@H](Cc1c[nH]cn1)NC(=O)[C@H](CC(C)C)NC(=O)[C@H](Cc1ccccc1)NC(=O)[C@H](CCC(=O)O)NC(=O)[C@H](C)NC(=O)[C@H](CC(C)C)NC(=O)[C@H](CCCNC(=N)N)NC(=O)[C@H](CCC(N)=O)NC(=O)[C@@H](NC(=O)[C@H](C)NC(=O)[C@@H]1CSSC[C@H](NC(=O)[C@H](CO)NC(=O)CC[C@H](NC(=O)CCCCCCCCCCCCCCCCCCC(=O)O)C(=O)O)C(=O)N[C@@H](CC(N)=O)C(=O)N[C@@H]([C@@H](C)O)C(=O)N[C@@H](C)C(=O)N[C@@H]([C@@H](C)O)C(=O)N1)[C@@H](C)O)C(=O)N[C@@H](CC(C)C)C(=O)N1CCC[C@H]1C(=O)N1CCC[C@H]1C(=O)N[C@H](C(=O)N[C@@H](CC(N)=O)C(=O)N[C@H](C(=O)NCC(=O)N[C@@H](CO)C(=O)N[C@@H](Cc1c[nH]cn1)C(=O)N[C@H](C(=O)N[C@@H](Cc1ccc(O)cc1)C(N)=O)[C@@H](C)O)C(C)C)[C@@H](C)O` [Example 107, N-alpha-[(S)-4-Carboxy-4-(19-carboxynonadecanoylamino)butyryl]-[Ser1,Glu14,His17,His35]-pramlintide] ({C20 diacid-γGlu}-SCNTATCATQRLAEFLHHSSNNFGPILPPTNVGSHTY-NH2; disulfide 2-7): the EC50 in series [1] was 225 pM; in series [2], 171 pM. The solubility at 18 h is 49 µM (≈ 217 µg/mL) in series [3] (setting [5]); 4 µM (≈ 17.8 µg/mL) in series [3] (setting [6]); 27 µM (≈ 120 µg/mL) in series [3] (setting [8]); 174 µM (≈ 772 µg/mL) in series [3] (setting [9]); above 200 µM in series [3] (setting [10]); above 200 µM in series [3] (setting [11]). The solubility at 18 h in series [3] (setting [12]), in series [3] (setting [13]) and in series [3] (setting [14]) was above 200 µM throughout. In addition, the “ThT pH 4.0 lag time (h)” value in series [4] (ThT fibrillation assay) was found to be 19 h.

The values above are taken from patent US8722849B2, “Polypeptides” (Novo Nordisk A/S, priority 2011, dated 2014).
